In US7741327B2 (Hoffmann-La Roche Inc., priority 2008, dated 2010):

The molecules below were run against T1, Recombinant human liver GK1 (GST-GK) (Homo sapiens, UniProt P35557) (assay: In vitro glucokinase activity (G6PDH-coupled NADH assay)). Details: 30° C., 5 mM D-glucose, 10% DMSO.
T1 construct: made in house; host or cells: E. coli
T1 sequence (P35557 1-466 isoform P35557-2): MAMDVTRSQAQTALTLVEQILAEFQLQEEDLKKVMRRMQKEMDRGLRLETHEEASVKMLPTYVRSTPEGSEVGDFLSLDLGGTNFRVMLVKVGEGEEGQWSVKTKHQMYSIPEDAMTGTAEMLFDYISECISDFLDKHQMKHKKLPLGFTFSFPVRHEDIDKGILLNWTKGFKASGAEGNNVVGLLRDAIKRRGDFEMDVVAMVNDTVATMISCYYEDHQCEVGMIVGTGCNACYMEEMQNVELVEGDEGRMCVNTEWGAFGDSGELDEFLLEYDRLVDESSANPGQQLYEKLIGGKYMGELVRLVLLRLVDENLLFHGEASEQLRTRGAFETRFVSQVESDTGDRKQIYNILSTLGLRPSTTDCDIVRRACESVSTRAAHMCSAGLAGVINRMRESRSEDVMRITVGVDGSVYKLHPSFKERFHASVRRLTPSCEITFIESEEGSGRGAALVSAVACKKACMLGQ
Type: biochemical
Description: Glucokinase In Vitro Assay Protocol: Glucokinase (GK) was assayed by coupling the production of glucose-6-phosphate to the generation of NADH with glucose-6-phosphate dehydrogenase (G6PDH, 0.75-1 kunits/mg; Boehringer Mannheim, Indianapolis, Ind.) from Leuconostoc mesenteroides as the coupling enzyme (Scheme 2).
Recombinant human liver GK1 was expressed in E. coli as a glutathione S-transferase fusion protein (GST-GK) [Liang et al, 1995] and was purified by chromatography over a glutathione-Sepharose 4B affinity column using the procedure provided by the manufacturer (Amersham Pharmacia Biotech, Piscataway, N.J.).
The assay was conducted at 30° C. in a flat bottom 96-well tissue culture plate from Costar (Cambridge, Mass.) with a final incubation volume of 120 μL. The incubation reaction contained the following: 25 mM Hepes buffer (pH 7.1), 25 mM KCl, 5 mM D-glucose, 1 mM ATP, 1.8 mM NAD, 2 mM MgCl2, 1 μM sorbitol-6-phosphate, 1 mM dithiothreitol, test drug or 10% dimethylsulfoxide, ˜7 units/ml G6PDH, and GK (see below). All organic reagents were >98% pure and were from Boehringer Mannheim with the exceptions of D-glucose and Hepes which were from Sigma Chemical Co, St Louis, Mo. Test compounds were dissolved in dimethylsulfoxide and were added to the incubation reaction minus GST-GK in a volume of 12 μL to yield a final dimethylsulfoxide concentration of 10%. This mix was pre-incubated in the temperature controlled chamber of a SPECTRAmax 250 microplate spectrophotometer (Molecular Devices Corporation, Sunnyvale, Calif.) for 10 min to allow temperature equilibrium and then the reaction was started by the addition of 20 μL GST-GK.
After addition of enzyme, the increase in optical density (OD) at 340 nm was monitored spectrophotometrically to determine the rate of change (OD340 per min). The GK activity (OD340/min) in control wells (10% DMSO minus GK activators) was compared with the activity in wells containing test GK activators, and the concentration of activator that produced a 50% increase in the activity of GK, i.e., the SC1.5, was calculated. The table below provides the in vitro glucokinase activity for the compounds in the Examples: […]
In the case of `Cc1ccccc1OC1=CC(=O)N([C@@H](CC(C)C)C(=O)Nc2ccn(C[C@@H](O)CO)n2)C1` [Example 124, (S)-4-Methyl-2-(2-oxo-4-o-tolyloxy-2,5-dihydro-pyrrol-1-yl)-pentanoic acid [1-((R)-2,3-dihydroxy-propyl)-1H-pyrazol-3-yl]-amide], the “SC1.5 (concentration of activator that produced a 50% increase in the activity of GK)” value is reported as 0.336 µM.
`O=C(Nc1ccn(C[C@@H](O)CO)n1)[C@H](Cc1ccccc1)N1CC(Oc2ccccc2Cl)=CC1=O` [Example 181, (S)-2-[4-(2-chloro-phenoxy)-2-oxo-2,5-dihydro-pyrrol-1-yl]-N-[1-((R)-2,3-dihydroxy-propyl)-1H-pyrazol-3-yl]-3-phenyl-propionamide] was tested, and the “SC1.5 (concentration of activator that produced a 50% increase in the activity of GK)” value was 1.064 µM.
For `COC(=O)c1ccc(NC(=O)[C@H](CC2CCCCC2)N2CC(Oc3c(F)cccc3Cl)=CC2=O)nc1` [Example 69, 6-{(S)-2-[4-(2-Chloro-6-fluoro-phenoxy)-2-oxo-2,5-dihydro-pyrrol-1-yl]-3-cyclohexyl-propionylamino}-nicotinic acid methyl ester], the “SC1.5 (concentration of activator that produced a 50% increase in the activity of GK)” value was 0.047 µM.
For `O=C(Nc1ccn(C[C@@H](O)CO)n1)C(CC1(F)CCCC1)N1CC(Oc2c(F)cccc2F)=CC1=O` (stereo partly drawn) [Example 159, 2-[4-(2,6-Difluoro-phenoxy)-2-oxo-2,5-dihydro-pyrrol-1-yl]-N-[1-((R)-2,3-dihydroxy-propyl)-1H-pyrazol-3-yl]-3-(1-fluoro-cyclopentyl)-propionamide], the “SC1.5 (concentration of activator that produced a 50% increase in the activity of GK)” value was 2.867 µM.
For `COc1ccccc1OC1=CC(=O)N(C(CC2CCOCC2)C(=O)Nc2ccn(CC(C)(C)O)n2)C1` (stereo not shown) [Example 34, N-[1-(2-hydroxy-2-methyl-propyl)-1H-pyrazol-3-yl]-2-[4-(2-methoxy-phenoxy)-2-oxo-2,5-dihydro-pyrrol-1-yl]-3-(tetrahydropyran-4-yl)-propionamide], the “SC1.5 (concentration of activator that produced a 50% increase in the activity of GK)” value was 0.217 µM.
For `CCOc1ccc(F)c(OC2=CC(=O)N(C(CC3CCOCC3)C(=O)Nc3ccn(CC(C)(C)O)n3)C2)c1F` (stereo not shown) [Example 256, 2-[4-(3-Ethoxy-2,6-difluoro-phenoxy)-2-oxo-2,5-dihydro-pyrrol-1-yl]-N-[1-(2-hydroxy-2-methyl-propyl)-1H-pyrazol-3-yl]-3-(tetrahydro-pyran-4-yl)-propionamide], the “SC1.5 (concentration of activator that produced a 50% increase in the activity of GK)” value was 0.044 µM.
`COc1ccc(Cc2nsc(NC(=O)[C@H](CC(C)C)N3CC(Oc4ccccc4Cl)=CC3=O)n2)cc1` [Example 109, (S)-2-[4-(2-Chloro-phenoxy)-2-oxo-2,5-dihydro-pyrrol-1-yl]-4-methyl-pentanoic acid [3-(4-methoxy-benzyl)-[1,2,4]thiadiazol-5-yl]-amide] was tested, and the “SC1.5 (concentration of activator that produced a 50% increase in the activity of GK)” value was over 30 µM.
In the case of `CC(C)C[C@@H](C(=O)Nc1ccn(CC(C)(C)O)n1)N1CC(Oc2ccccc2F)=CC1=O` [Example 167, (S)-2-[4-(2-Fluoro-phenoxy)-2-oxo-2,5-dihydro-pyrrol-1-yl]-4-methyl-pentanoic acid [1-(2-hydroxy-2-methyl-propyl)-1H-pyrazol-3-yl]-amide], the “SC1.5 (concentration of activator that produced a 50% increase in the activity of GK)” value is reported as 0.206 µM.
With `Cc1nsc(NC(=O)[C@H](CC(C)C)N2CC(Oc3ccccc3Cl)=CC2=O)n1` [Example 107, (S)-2-[4-(2-Chloro-phenoxy)-2-oxo-2,5-dihydro-pyrrol-1-yl]-4-methyl-pentanoic acid (3-methyl-[1,2,4]thiadiazol-5-yl)-amide] the “SC1.5 (concentration of activator that produced a 50% increase in the activity of GK)” value was over 30 µM.
`CC[C@@H](C)C[C@H](C(=O)Nc1ccn(C[C@@H](O)CO)n1)N1CC(Oc2ccccc2Cl)=CC1=O` (single isomer, unassigned) [Example 254] was tested, and the “SC1.5 (concentration of activator that produced a 50% increase in the activity of GK)” value was 16.154 µM.
`O=C(Nc1ccn(C[C@@H](O)CO)n1)[C@H](CC1CCCCC1)N1CC(Oc2ccccc2Cl)=CC1=O` [Example 63, (S)-2-[4-(2-Chloro-phenoxy)-2-oxo-2,5-dihydro-pyrrol-1-yl]-3-cyclohexyl-N-[1-((R)-2,3-dihydroxy-propyl)-1-H-pyrazol-3-yl]-propionamide] was tested, and the “SC1.5 (concentration of activator that produced a 50% increase in the activity of GK)” value was 0.009 µM.
`CCOc1cccc(OC2=CC(=O)N([C@@H](CC(C)C)C(=O)Nc3ccn(CC(C)(C)O)n3)C2)c1` [Example 163, (S)-2-[4-(3-Ethoxy-phenoxy)-2-oxo-2,5-dihydro-pyrrol-1-yl]-4-methyl-pentanoic acid [1-(2-hydroxy-2-methyl-propyl)-1H-pyrazol-3-yl]-amide] was tested, and the “SC1.5 (concentration of activator that produced a 50% increase in the activity of GK)” value was 0.239 µM.
For `CC(C)C[C@@H](C(=O)Nc1ccn(C[C@@H](O)CO)n1)N1CC(Oc2cccc(C(F)(F)F)c2)=CC1=O` [Example 96, (S)-4-Methyl-2-[2-oxo-4-(3-trifluoromethyl-phenoxy)-2,5-dihydro-pyrrol-1-yl]-pentanoic acid [1-((R)-2,3-dihydroxy-propyl)-1H-pyrazol-3-yl]-amide], the “SC1.5 (concentration of activator that produced a 50% increase in the activity of GK)” value was 0.97 µM.
`O=C(Nc1ccn(C[C@@H](O)CO)n1)[C@H](CC1CCCCC1)N1CC(Oc2c(F)cccc2F)=CC1=O` [Example 38, (S)-3-Cyclohexyl-2-[4-(2,6-difluoro-phenoxy)-2-oxo-2,5-dihydro-pyrrol-1-yl]-N-[1-((R)-2,3-dihydroxy-propyl)-1H-pyrazol-3-yl]-propionamide] was tested, and the “SC1.5 (concentration of activator that produced a 50% increase in the activity of GK)” value was 0.027 µM.
For `CC(C)(O)Cn1ccc(NC(=O)[C@H](CC2CCCCC2)N2CC(Oc3cccc(C(F)(F)F)c3)=CC2=O)n1` [Example 209, (S)-3-cyclohexyl-N-[1-(2-hydroxy-2-methyl-propyl)-1H-pyrazol-3-yl]-2-[2-oxo-4-(3-trifluoromethyl-phenoxy)-2,5-dihydro-pyrrol-1-yl]-propionamide], the “SC1.5 (concentration of activator that produced a 50% increase in the activity of GK)” value was 0.076 µM.
In the case of `C=Cc1cccc(OC2=CC(=O)N([C@@H](CC(C)C)C(=O)Nc3cnccn3)C2)c1F` [Example 154, (S)-2-[4-(2-Fluoro-3-vinyl-phenoxy)-2-oxo-2,5-dihydro-pyrrol-1-yl]-4-methyl-pentanoic acid pyrazin-2-ylamide], the “SC1.5 (concentration of activator that produced a 50% increase in the activity of GK)” value is reported as 0.172 µM.
With `CC(C)(O)Cn1ccc(NC(=O)[C@H](CC2CCCCC2)N2CC(Oc3cccc(F)c3)=CC2=O)n1` [Example 206, (S)-3-cyclohexyl-2-[4-(3-fluoro-phenoxy)-2-oxo-2,5-dihydro-pyrrol-1-yl]-N-[1-(2-hydroxy-2-methyl-propyl)-1H-pyrazol-3-yl]-propionamide] the “SC1.5 (concentration of activator that produced a 50% increase in the activity of GK)” value was 0.034 µM.
For `Cc1cccc(OC2=CC(=O)N([C@@H](CC(C)C)C(=O)Nc3ccn(CCO)n3)C2)c1F` [Example 133, (S)-2-[4-(2-Fluoro-3-methyl-phenoxy)-2-oxo-2,5-dihydro-pyrrol-1-yl]-4-methyl-pentanoic acid [1-(2-hydroxy-ethyl)-1H-pyrazol-3-yl]-amide], the “SC1.5 (concentration of activator that produced a 50% increase in the activity of GK)” value was 0.249 µM.
`COc1cccc(OC2=CC(=O)N([C@@H](CC(C)C)C(=O)Nc3ccn(C[C@@H](O)CO)n3)C2)c1` [Example 160, (S)-2-[4-(3-Methoxy-phenoxy)-2-oxo-2,5-dihydro-pyrrol-1-yl]-4-methyl-pentanoic acid [1-((R)-2,3-dihydroxy-propyl)-1H-pyrazol-3-yl]-amide] was tested, and the “SC1.5 (concentration of activator that produced a 50% increase in the activity of GK)” value was 0.306 µM.
In the case of `COc1cccc(OC2=CC(=O)N(C(CC(C)(C)F)C(=O)Nc3ccn(C[C@@H](O)CO)n3)C2)c1Cl` (stereo partly drawn) [Example 170, 2-[4-(2-Chloro-3-methoxyphenoxy)-2-oxo-2,5-dihydro-pyrrol-1-yl]-4-fluoro-4-methyl-pentanoic acid-[1-((R)-2,3-dihydroxy-propyl)-1H-pyrazol-3-yl]-amide], the “SC1.5 (concentration of activator that produced a 50% increase in the activity of GK)” value is reported as 3.575 µM.

Same assay, conditions: at 30 μM test compound
For `COc1ccc(Cc2nsc(NC(=O)[C@H](CC(C)C)N3CC(Oc4ccccc4Cl)=CC3=O)n2)cc1` [Example 109, (S)-2-[4-(2-Chloro-phenoxy)-2-oxo-2,5-dihydro-pyrrol-1-yl]-4-methyl-pentanoic acid [3-(4-methoxy-benzyl)-[1,2,4]thiadiazol-5-yl]-amide], the “fold act. @ 30 μM” value was 1.3 fold.
With `Cc1nsc(NC(=O)[C@H](CC(C)C)N2CC(Oc3ccccc3Cl)=CC2=O)n1` [Example 107, (S)-2-[4-(2-Chloro-phenoxy)-2-oxo-2,5-dihydro-pyrrol-1-yl]-4-methyl-pentanoic acid (3-methyl-[1,2,4]thiadiazol-5-yl)-amide] the “fold act. @ 30 μM” value was 1.4 fold.
